From patent publication US20010011084A1, “USE OF ESTROGEN TO MODIFY THE AMOUNT OF SEROTONIN TRANSPORTER OR ITS MRNA” (priority 1996, published 2001)

Legend:
[1] = 10 μg EB s.c., for up to 30 h in ovariectomized rats; cited from earlier work
luteinizing hormone (LH) = assay: Plasma r-LH in trunk blood by radioimmunoassay; type: in vivo, rat; settings: presumptive proestrus, OVX rats, 10 μg s.c., mean±sem, n=7
uterine horns = assay: Examination of the uterine horns; type: in vivo, rat; settings: OVX rats, 10 μg s.c., next day

## C[C@]12CC[C@@H]3c4ccc(OC(=O)c5ccccc5)cc4CC[C@H]3[C@@H]1CC[C@@H]2O [EB, estradiol benzoate]
[1]
  blood levels of E2: 100-120 pg E2/ml
Luteinizing hormone (LH)
  Plasma r-LH levels: 7.5 ± 3.1 ng/mL
Uterine horns
  uterine horns: markedly distended with fluid
